How the values were obtained:
[1] = Antagonist activity at nAChR in rat striatal slices assessed as inhibition of nicotine-evoked [3H]dopamine release; format: functional
[2] = Antagonist activity at nAChR in rat striatal slices assessed as inhibition of nicotine-evoked [3H]dopamine release at 100 uM; format: functional; conditions: for inhibition at 100 µM: Rattus norvegicus
[3] = target: Neuronal acetylcholine receptor subunit alpha-7 (Rattus norvegicus) (UniProt Q05941); assay: Displacement of [3H]MLA from alpha-7 nAChR in rat brain membrane at 100 uM; format: cell membranes
Neuronal acetylcholine receptor subunit alpha-7 (Rattus norvegicus), sequence (Q05941 whole entry): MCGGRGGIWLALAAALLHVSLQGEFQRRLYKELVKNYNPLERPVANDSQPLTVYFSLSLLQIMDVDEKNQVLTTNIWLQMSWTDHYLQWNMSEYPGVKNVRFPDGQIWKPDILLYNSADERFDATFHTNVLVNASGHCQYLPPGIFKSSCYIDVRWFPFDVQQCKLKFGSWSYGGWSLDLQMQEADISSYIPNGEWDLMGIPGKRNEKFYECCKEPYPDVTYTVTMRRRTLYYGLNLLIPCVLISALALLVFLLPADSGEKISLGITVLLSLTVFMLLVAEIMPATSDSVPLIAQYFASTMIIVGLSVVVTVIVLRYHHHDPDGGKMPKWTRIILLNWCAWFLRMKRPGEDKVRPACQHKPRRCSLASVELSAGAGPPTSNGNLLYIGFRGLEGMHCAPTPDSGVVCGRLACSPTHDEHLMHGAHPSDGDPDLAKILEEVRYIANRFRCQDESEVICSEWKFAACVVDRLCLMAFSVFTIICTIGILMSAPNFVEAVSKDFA

[4] = target: Neuronal acetylcholine receptor; alpha4/beta2 (Rattus norvegicus) (UniProt P09483+P12390); assay: Displacement of [3H]NIC from alpha-4-beta-2 nAChR in rat brain membrane at 100 uM; format: cell membranes

Row | Compound | IC50 [1] [nM] | Imax [2] [%] | inhibition [3] [%] | inhibition at 100 µM [2] [%] | inhibition [4] [%]
1 | Cc1ccc[n+](CCCCCCCCCCCC[n+]2cccc(C)c2)c1.[Br-].[Br-] | 2 | 68 | – | – | –
2 | CN1CCC[C@H]1c1ccc[n+](CCCCCc2cc(CCCCC[n+]3cccc([C@@H]4CCCN4C)c3)cc(CCCCC[n+]3cccc([C@@H]4CCCN4C)c3)c2)c1 | – | – | 7.9 | 26 | 81
3 | Cc1cc[n+](CCCC#Cc2cc(C#CCCC[n+]3ccc(C)cc3)cc(C#CCCC[n+]3ccc(C)cc3)c2)cc1 | – | – | 0 | 32 | 21
4 | c1ccc2c(c1)ccc[n+]2CCCCCc1cc(CCCCC[n+]2cccc3ccccc32)cc(CCCCC[n+]2cccc3ccccc32)c1 | – | – | 6.8 | 8 | 5.7
5 | Cc1cc[n+](CCCCCc2cc(CCCCC[n+]3ccc(C)cc3)cc(CCCCC[n+]3ccc(C)cc3)c2)cc1 | – | – | 0 | 37 | 6
6 | Cc1cc[n+](CCCCCc2cc(CCCCC[n+]3ccc(C)c(C)c3)cc(CCCCC[n+]3ccc(C)c(C)c3)c2)cc1C | – | – | 0.2 | 50 | 9.3
7 | CCCCc1ccc[n+](CCCC#Cc2cc(C#CCCC[n+]3cccc(CCCC)c3)cc(C#CCCC[n+]3cccc(CCCC)c3)c2)c1 | – | – | 30 | 28 | 6.8
8 | Cc1ccc[n+](CCCC#Cc2cc(C#CCCC[n+]3cccc(C)c3)cc(C#CCCC[n+]3cccc(C)c3)c2)c1.[Br-].[Br-].[Br-] | 0.2 | 67 | 0 | 40 | 10
9 | Cc1cccc[n+]1CCCCCc1cc(CCCCC[n+]2ccccc2C)cc(CCCCC[n+]2ccccc2C)c1 | – | – | 0 | 27 | 8.6
10 | Cc1cccc[n+]1CCCC#Cc1cc(C#CCCC[n+]2ccccc2C)cc(C#CCCC[n+]2ccccc2C)c1.[Br-].[Br-].[Br-] | 4 | 50 | 0 | 51 | 4.5
11 | c1ccc2c[n+](CCCCCc3cc(CCCCC[n+]4ccc5ccccc5c4)cc(CCCCC[n+]4ccc5ccccc5c4)c3)ccc2c1 | – | – | 2.5 | 28 | 8.4
12 | Cc1cc[n+](CCCC#Cc2cc(C#CCCC[n+]3ccc(C)c(C)c3)cc(C#CCCC[n+]3ccc(C)c(C)c3)c2)cc1C | – | – | 1.8 | 18 | 4
13 | CCCCCCCCCCCC[n+]1cccc(C)c1.[I-] | 30 | 62 | – | – | –
14 | Cc1cc(C)c[n+](CCCC#Cc2cc(C#CCCC[n+]3cc(C)cc(C)c3)cc(C#CCCC[n+]3cc(C)cc(C)c3)c2)c1 | – | – | 0 | 27 | 8.9
15 | C(#Cc1cc(C#CCCC[n+]2cccc3ccccc32)cc(C#CCCC[n+]2cccc3ccccc32)c1)CCC[n+]1cccc2ccccc21 | – | – | 21 | 29 | 7
16 | C(#Cc1cc(C#CCCC[n+]2ccc3ccccc3c2)cc(C#CCCC[n+]2ccc3ccccc3c2)c1)CCC[n+]1ccc2ccccc2c1 | – | – | 4.5 | 44 | 9.2
17 | CCCCc1ccc[n+](CCCCCc2cc(CCCCC[n+]3cccc(CCCC)c3)cc(CCCCC[n+]3cccc(CCCC)c3)c2)c1 | – | – | 4.4 | 68 | 6.2
18 | CN1CCC[C@H]1c1ccc[n+](CCCC#Cc2cc(C#CCCC[n+]3cccc([C@@H]4CCCN4C)c3)cc(C#CCCC[n+]3cccc([C@@H]4CCCN4C)c3)c2)c1.[Br-].[Br-].[Br-] | – | 50 | 4.2 | 59 | 44
19 | Cc1cc(C)c[n+](CCCCCc2cc(CCCCC[n+]3cc(C)cc(C)c3)cc(CCCCC[n+]3cc(C)cc(C)c3)c2)c1 | – | – | 6.5 | 39 | 11
20 | C(#Cc1cc(C#CCCC[n+]2cccc(-c3ccccc3)c2)cc(C#CCCC[n+]2cccc(-c3ccccc3)c2)c1)CCC[n+]1cccc(-c2ccccc2)c1 | – | – | 39 | 29 | 15
21 | Cc1ccc[n+](CCCCCc2cc(CCCCC[n+]3cccc(C)c3)cc(CCCCC[n+]3cccc(C)c3)c2)c1.[Br-].[Br-].[Br-] | 2 | 50 | 1.2 | 58 | 14
22 | c1ccc(-c2ccc[n+](CCCCCc3cc(CCCCC[n+]4cccc(-c5ccccc5)c4)cc(CCCCC[n+]4cccc(-c5ccccc5)c4)c3)c2)cc1 | – | – | 19 | 6 | 14
